Results reported in patent publication US11384075B2, “Quinolinone compounds” (Janssen Pharmaceutica NV, priority 2017, dated 2022).

Key:
[1] = target: T1, human FGFR3 V555M enzyme (cytoplasmic domain carrying V555M mutation) (Homo sapiens, UniProt P22607, V555M); assay: FGFR3 V555M mobility shift assay (enzymatic assay); type: biochemical; settings: 30 μM ATP, 45 minutes at 30° C., Caliper EZ reader II
T1 construct: human FGFR3 V555M enzyme (cytoplasmic domain carrying V555M mutation, from Carna Biosciences); purchased Carna Biosciences
T1 sequence (P22607 397-806 V555M limits assumed): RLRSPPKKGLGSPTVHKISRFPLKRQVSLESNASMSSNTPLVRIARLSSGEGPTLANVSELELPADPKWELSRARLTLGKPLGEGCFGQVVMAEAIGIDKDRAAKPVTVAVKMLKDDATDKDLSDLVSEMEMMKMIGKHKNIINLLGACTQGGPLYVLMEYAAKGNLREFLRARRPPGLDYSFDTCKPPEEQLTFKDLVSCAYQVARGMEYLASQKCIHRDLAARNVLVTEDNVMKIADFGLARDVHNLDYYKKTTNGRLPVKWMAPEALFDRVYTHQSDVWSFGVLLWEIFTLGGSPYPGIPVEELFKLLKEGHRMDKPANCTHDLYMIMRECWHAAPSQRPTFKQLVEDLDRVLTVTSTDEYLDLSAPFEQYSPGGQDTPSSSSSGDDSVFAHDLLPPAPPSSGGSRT
Protocol: FGFR3 V555M Mobility Shift Assay (Enzymatic Assay)
(§1) In a final reaction volume of 25 μL, 0.04 ng/μL human FGFR3 V555M enzyme (cytoplasmic domain carrying V555M mutation, from Carna Biosciences) was incubated with 30 μM ATP, 1 μM FL-peptide 30 substrate and 250 nL of testing compound (1% DMSO final) in assay buffer (100 mM HEPES pH 7.4, 10 mM MgCl2, 0.003% Brij35, 1 mM DTT). After incubation for 45 minutes at 30° C. the reaction was stopped with 10 μL of 0.5M EDTA pH 8.0, and then 25 μL of reaction mixture was transferred to reading plate and measured on Caliper EZ reader II. The substrate-product conversion rate was used as raw data for normalization and concentration-response curve (10 dose points with 4× serial dilution, starting with 10 μM) was plotted using Prism to calculate IC50 (M), pIC50 (−log IC50) and HillSlope value.

[2] = test system: NIH/3T3 cells transfected with the same control vector; assay: NIH/3T3 mock cell proliferation assay (counter assay, general toxicity); type: cell-based; settings: Mus musculus, NIH3T3, 72 h, 72-hr incubation, CellTiter Glo, starting with 30 μM; counter assay for general toxicity; read-out: NIH/3T3 MOCK CTG (IC50)
Protocol: NIH/3T3 Mock Cell Proliferation Assay
(§2) In day 1, 90 μL of cell suspension (NIH/3T3 cells transfected with the same control vector as in the above two proliferation assays) (total 30,000 cells per well in growth medium (DMEM containing 1% Glutamax, 10% FBS and 1% Pen/Strep)) was seeded in a 96-well plate and then incubated overnight at 37° C. and 5% CO2. In day 2, 10 μL of growth medium containing 10-fold stock solution of testing compound was added into cell cultures (9 dose points with 3× serial dilution, starting with 30 μM, 0.3% DMSO final). After 72-hr incubation at 37° C. and 5% CO2, in day 5 a volume of 50 μL CellTiter Glo (CTG) reagent was added into cell-containing 96-well plate and the plate was incubated at room temperature for 10 minutes before RLUs (relative light unit) were measured on a microplate reader with luminescence detection module. The RLU value was normalized to survival % and concentration-response curve was plotted using Prism to calculate IC50 (M), pIC50 (−log IC50) and HillSlope value.

[3] = target: T2, NIH/3T3 cells overexpressing FGFR3 WT-TACC3 fusion protein (Homo sapiens, UniProt P22607); assay: NIH/3T3 FGFR3 WT-TACC3 cell proliferation assay; type: cell-based; settings: 72-hr incubation, CellTiter Glo, starting with 10 μM; read-out: NIH/3T3 FGFR3 WT-TACC3 CTG (IC50)
T2 construct: NIH/3T3 FGFR3 WT-TACC3 CTG (IC50); other: 72-hr incubation, CellTiter Glo, starting with 10 μM; fused on or other part: Q9Y6A5 (Transforming acidic coiled-coil-containing protein 3)
T2 sequence (P22607 whole entry, change not shown, the tested form may be a part): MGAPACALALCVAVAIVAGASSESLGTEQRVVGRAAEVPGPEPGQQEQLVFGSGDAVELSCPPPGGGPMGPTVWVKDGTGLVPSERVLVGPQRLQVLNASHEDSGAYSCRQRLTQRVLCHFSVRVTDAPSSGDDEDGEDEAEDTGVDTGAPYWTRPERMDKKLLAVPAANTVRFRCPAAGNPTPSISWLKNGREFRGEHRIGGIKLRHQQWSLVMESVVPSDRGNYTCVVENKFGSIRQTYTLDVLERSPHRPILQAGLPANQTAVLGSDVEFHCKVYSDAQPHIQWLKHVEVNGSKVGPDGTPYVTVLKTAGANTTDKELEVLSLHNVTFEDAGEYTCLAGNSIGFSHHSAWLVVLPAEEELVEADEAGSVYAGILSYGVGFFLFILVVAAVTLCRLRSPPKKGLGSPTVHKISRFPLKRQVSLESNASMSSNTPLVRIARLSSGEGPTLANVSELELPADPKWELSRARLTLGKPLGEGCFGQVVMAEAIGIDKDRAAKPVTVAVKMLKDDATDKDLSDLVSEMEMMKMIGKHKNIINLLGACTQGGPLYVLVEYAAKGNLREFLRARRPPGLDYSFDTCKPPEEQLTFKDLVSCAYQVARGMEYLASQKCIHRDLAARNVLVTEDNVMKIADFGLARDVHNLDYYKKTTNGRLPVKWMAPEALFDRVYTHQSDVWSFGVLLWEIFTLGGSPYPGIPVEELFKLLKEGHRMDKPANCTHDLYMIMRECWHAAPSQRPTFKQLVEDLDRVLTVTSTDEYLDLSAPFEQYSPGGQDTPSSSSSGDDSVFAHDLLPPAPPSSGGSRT
Protocol: NIH/3T3 FGFR3 WT-TACC3 Cell Proliferation Assay
as §2, with “cells overexpressing FGFR3 WT-TACC3 fusion protein)” for “cells transfected with the same control vector as in the above two proliferation assays)”, “with 4×” for “with 3×”, “with 10” for “with 30”, “μM, 0.1%” for “μM, 0.3%”

[4] = target: T3, NIH/3T3 cells overexpressing FGFR3 V555M-TACC3 fusion protein (Homo sapiens, UniProt P22607, V555M, cells depend on it); assay: NIH/3T3 FGFR3 V555M-TACC3 cell proliferation assay; type: cell-based; settings: 72-hr incubation, CellTiter Glo, starting with 10 μM; read-out: NIH/3T3 FGFR3 V555M-TACC3 CTG (IC50)
T3 construct: NIH/3T3 FGFR3 V555M-TACC3 CTG (IC50); other: 72-hr incubation, CellTiter Glo, starting with 10 μM; fused on or other part: Q9Y6A5 (Transforming acidic coiled-coil-containing protein 3)
T3 sequence (P22607 whole entry V555M, the tested form may be a part): as the sequence (P22607 whole entry, change not shown, the tested form may be a part) above, with V555M counted along it
Protocol: NIH/3T3 FGFR3 V555M-TACC3 Cell Proliferation Assay
as §2, with “cells overexpressing FGFR3 V555M-TACC3 fusion protein)” for “cells transfected with the same control vector as in the above two proliferation assays)”, “with 4×” for “with 3×”, “with 10” for “with 30”, “μM, 0.1%” for “μM, 0.3%”

[5] = target: T4, human FGFR3 wild type enzyme (cytoplasmic domain) (Homo sapiens, UniProt P22607); assay: FGFR3 wild type mobility shift assay (enzymatic assay); type: biochemical; settings: 75 μM ATP, 50 minutes at 30° C., Caliper EZ reader II
T4 construct: human FGFR3 wild type enzyme (cytoplasmic domain, from Carna Biosciences); purchased Carna Biosciences
T4 sequence (P22607 397-806 limits assumed): as the sequence (P22607 397-806 V555M limits assumed) above, with M159V counted along it
Protocol: FGFR3 Wild Type Mobility Shift Assay (Enzymatic Assay)
as §1, with “FGFR3 wild type” for “FGFR3 V555M”, “(cytoplasmic domain,” for “(cytoplasmic domain carrying V555M mutation,”, “with 75” for “with 30”, “for 50” for “for 45”

SMILES	IC50 [1] [nM]	GI50 [3] [nM]	GI50 [4] [nM]	IC50 [5] [nM]	IC50 [2] [nM]
CC(Nc1c(-c2nc3cc(C(F)(F)F)c(N4CCOCC4)cc3[nH]2)c(=O)[nH]c2ccccc12)c1ncccn1 (single isomer, unassigned) [Compound 45, (S*)-3-(6-morpholino-5-(trifluoromethyl)-1H-benzo[d]imidazol-2-yl)-4-((1-(pyrimidin-2-yl)ethyl)amino)quinolin-2(1H)-one]	0.483	25.3	12.2	1.17	12700
CC(Nc1c(-c2nc3ccc(N4C[C@@H](C)O[C@H](C)C4)cc3[nH]2)c(=O)[nH]c2ccccc12)c1ncccn1 (single isomer, unassigned) [Compound 37a, 3-(6-((2R,6R)-2,6-dimethylmorpholino)-1H-benzo[d]imidazol-2-yl)-4-(((S*)-1-(pyrimidin-2-yl)ethyl)amino)quinolin-2(1H)-one]	0.326	11.7	4.18	0.478	898
CC(Nc1c(-c2nc3ccc(N4C[C@H](C)O[C@@H](C)C4)cc3[nH]2)c(=O)[nH]c2ccccc12)c1ncccn1 (single isomer, unassigned) [Compound 39a, 3-(6-((2S,6S)-2,6-dimethylmorpholino)-1H-benzo[d]imidazol-2-yl)-4-(((S*)-1-(pyrimidin-2-yl)ethyl)amino)quinolin-2(1H)-one]	0.136	6.58	6.47	0.174	1600
CC(Nc1c(-c2nc3ccc(N4CCN(CCC(F)(F)F)CC4)cc3[nH]2)c(=O)[nH]c2ccccc12)c1ncccn1 (single isomer, unassigned) [Compound 41a, (S*)-4-((1-(pyrimidin-2-yl)ethyl)amino)-3-(6-(4-(3,3,3-trifluoropropyl)piperazin-1-yl)-1H-benzo[d]imidazol-2-yl)quinolin-2(1H)-one]	0.485	7.08	5.01	0.668	6970
CC(Nc1c(-c2nc3cc(C(F)(F)F)c(N4CCC(C(=O)OC(C)(C)C)CC4)cc3[nH]2)c(=O)[nH]c2ccccc12)c1ncccn1 (single isomer, unassigned) [Compound 57, (S*)-tert-butyl 1-(2-(2-oxo-4-((1-(pyrimidin-2-yl)ethyl)amino)-1,2-dihydroquinolin-3-yl)-5-(trifluoromethyl)-1H-benzo[d]imidazol-6-yl)piperidine-4-carboxylate]	19.2	–	–	61.9	–
CC(Nc1c(-c2nc3ccc(N4CCN(CCC(F)(F)F)CC4)cc3[nH]2)c(=O)[nH]c2ccccc12)c1ncccn1 (single isomer, unassigned) [Compound 41b, (R*)-4-((1-(pyrimidin-2-yl)ethyl)amino)-3-(6-(4-(3,3,3-trifluoropropyl)piperazin-1-yl)-1H-benzo[d]imidazol-2-yl)quinolin-2(1H)-one]	19.4	–	–	39.4	–
CC(Nc1c(-c2nc3ccc(-c4cnn(C)c4)cc3[nH]2)c(=O)[nH]c2ccccc12)c1ncccn1 (single isomer, unassigned) [Compound 53b, (R*)-3-(6-(1-methyl-1H-pyrazol-4-yl)-1H-benzo[d]imidazol-2-yl)-4-((1-(pyrimidin-2-yl)ethyl)amino)quinolin-2(1H)-one]	15.3	–	–	35.2	–

The next lines start with results.

IC50 [1] [nM]	GI50 [3] [nM]	GI50 [4] [nM]	IC50 [5] [nM]	SMILES	IC50 [2] [nM]
0.484	32.3	61.7	0.809	C[C@H](Nc1c(-c2nc3ccc(N4CCC(C(=O)O)CC4)cc3[nH]2)c(=O)[nH]c2ccccc12)c1ccccn1 [Compound 6, (S)-1-(2-(2-Oxo-4-((1-(pyridin-2-yl)ethyl)amino)-1,2-dihydroquinolin-3-yl)-H-benzo[d]imidazol-6-yl)piperidine-4-carboxylic acid 0.5formate]	795
20.2	–	–	29.3	CC(Nc1c(-c2nc3ccc(N4C[C@@H](C)O[C@H](C)C4)cc3[nH]2)c(=O)[nH]c2ccccc12)c1ncccn1 (single isomer, unassigned) [Compound 37b, 3-(6-((2R,6R)-2,6-dimethylmorpholino)-1H-benzo[d]imidazol-2-yl)-4-(((R*)-1-(pyrimidin-2-yl)ethyl)amino)quinolin-2(1H)-one]	–
12	–	–	32.6	CC(Nc1c(-c2nc3ccc(N4CCN(C)CC4)cc3[nH]2)c(=O)[nH]c2ccccc12)c1cocn1 (single isomer, unassigned) [Compound 11a, (S*)-3-(6-(4-methylpiperazin-1-yl)-1H-benzo[d]imidazol-2-yl)-4-((1-(oxazol-4-yl)-ethyl)amino)quinolin-2(1H)-one]	–
8.75	–	–	48.9	C[C@H](Nc1c(-c2nc3ccc(N4CCOCC4)cc3[nH]2)c(=O)[nH]c2ccccc12)c1nccc(C2CC2)n1 (single isomer, unassigned) [Compound 50a, (S*)-4-((1-(4-cyclopropylpyrimidin-2-yl)ethyl)amino)-3-(6-morpholino-H-benzo[d]-imidazol-2-yl)quinolin-2(1H)-one]	–
7.07	–	–	27	CC(C)c1ccnc(C(C)Nc2c(-c3nc4ccc(N5CCOCC5)cc4[nH]3)c(=O)[nH]c3ccccc23)n1 (single isomer, unassigned) [Compound 49a, (S*)-4-((1-(4-isopropylpyrimidin-2-yl)ethyl)amino)-3-(6-morpholino-1H-benzo[d]-imidazol-2-yl)quinolin-2(1H)-one]	–
